# Results published in patent publication US10183936B2, “Hepatitis B core protein allosteric modulators” (priority 2014, dated 2019).
# Assays:
# [1] = tested on: HBV viral production in AD38 cells; assay: Viral load production in AD38 cells by quantitative PCR of the HBV core sequence in supernatant; format: cell-based; settings: Hepatitis B virus, 144 h; 10 μM compound, 6 days at 37° C., viral load in supernatant compared against DMSO control wells; read-out: AD38 Viral Load (CpAM/DMSO %) at 10 μM
# Method in brief: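 AD38 cells seeded at 50,000/well, treated 6 days at 37° C with compound added as 10× solution in 10% DMSO. HBV core sequence in clarified supernatant quantified by TaqMan qPCR against known standards; viral load compared with DMSO control wells.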
# [2] = tested on: AD38 cells; assay: Viability of AD38 cells (Promega CellTiter-Glo) at the end of compound treatment; format: cell-based; settings: 10 μM compound, 6 days, luminescence normalized against DMSO control wells (controls being 100%)
# Method in brief: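 AD38 cells seeded at 50,000/well received compound from a 10× solution in 10% DMSO and were incubated 6 days at 37° C. Viability was then read by CellTiter-Glo luminescence in tetracycline-free medium with 2% FBS and 1% DMSO, normalized to DMSO control wells (100%) and reported as percent viability.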
Compound,activity at 10 µM [1] [%],AD38 Viability Normalized Result (CPAM/DMSO %) at 10 μM [2] [%]
CCC(CNC(=O)c1ccc2c(c1)NC(=O)c1ccccc1S2)c1ccccc1 (stereo not drawn) [Compound 1176],2,104
Nc1ncc(CNC(=O)c2ccc3c(c2)NC(=O)c2ccccc2S3)s1 [Compound 1613],0,122
Cc1c(C(=O)Nc2ccncc2)ccc2c1NC(=O)c1ccccc1S2 [Compound 1516],30,82
O=C(Nc1ccccc1O)c1ccc2c(c1)NC(=O)c1ccccc1S2 [Compound 1229],45,76
O=C(NCCC1CCCCC1)c1ccc2c(c1)NC(=O)c1cc(Cl)ccc1S2 [Compound 1235],6,61
O=C(NCCc1ccccc1)c1ccc2c(c1)NC(=O)c1ccccc1S2 [Compound 1104],1,85
